The test system of one assay is ovariectomized rats. Put plainly: Effect on bone mass (bone calcium) in ovariectomized rats. It counts as in vivo, Sprague-Dawley female rats. On the procedure:
Bone Dis. 5:177 181 (1984).
Adult Sprague-Dawley female rats were acclimatized, weight grouped (n=9, 10 or 12), and subjected to bilateral ovariectomy (OVX) or sham surgery. Dosing was initiated 17 days after surgery and continued for 20 days. Test compound was administered subcutaneously once a day in 2% rat serum/saline vehicle.
After 20 days of dosing, the rats were sacrificed and the right femurs excised. The femurs were cut in half and the distal half femurs (DHF) were further separated into trabecular bone (TB) and cortical bone (CB) by drilling out the trabeculae. Calcium was extracted and measured by Calcette calcium analyzer and expressed as mean bone Ca in mg/DHF/100 g body weight.
The two sample t-test was used to compare OVX and sham groups. One-way ANOVA was used to compare OVX groups, followed by Fisher's LSD multiple comparison to compare each treatment group to vehicle.

Assay [1] deals with normal and osteoporotic adult female rats. Conditions: daily subcutaneous doses; cited from earlier work.
The subject of assay [2] is ovariectomized adult female rats. The settings on record: daily subcutaneous injections; cited from earlier work.
Another assay has as its system healthy adult male rats. Conditions: daily subcutaneous injections for 12 days; cited from earlier work.
[3] abbreviates: 80 μg/kg/day subcutaneously once a day, 20 days of dosing.

Where no end group is shown, it is not given here. [ ]: non-standard residue; d: D form. The star is where a group is joined. hSer(lactone) = O=C1OCC[C@@H]1N*

Take “AVSEHQLLHDKGKSIQDLRRRELLEKLLEKLHTA-OH [Compound 2]”: in the assay on ovariectomized rats (setting [3]), the “Total Bone Calcium (% increase over OVX)” value is given as 66-114% and the “Trabecular Bone Calcium (% increase over OVX)” value is recorded as 87-102%.
As to “AVSEHQLLHDKGKSIQDLRRRELLEKLLEKLP-NH2 (AVSEHQLLHDKGKSIQDLRRRELLEKLLEKLP-NH2) [Compound 42]”, the “Total Bone Calcium (% increase over OVX)” value with ovariectomized rats (40 ug/kg/day, 5 d of dosing) turned out to be 60%.
Consider “hPTH(1-34): N-terminal (1-34) fragment of human parathyroid hormone (SVSEIQLMHNLGKHLNSMERVEWLRKKLQDVHNF; Parathyroid hormone; UniProt P01270 32-65, looked up, fragment)”, for which, in assay [1], the “Whole body calcium and ash weight of individual bones” value is recorded as “increased”. Also, the “Loss of trabecular bone after ovariectomy” value in assay [2] was “completely reversed the loss of trabecular bone”. Also, the “Trabecular and cortical bone calcium and dry weight” value in the assay with healthy adult male rats is “increased”.
On to “AVSEHQLLHDKGKSIQDLRRRELLEKLLEKLHTX [Compound 49]”, for which the “Total Bone Calcium (% increase over OVX)” value with ovariectomized rats (40 ug/kg/day, 10 d of dosing) was determined as 93%.
In the case of “AVSEHQLLHDKGKSIQDLRRRELLEKLLEKLHTX (AVSEHQLLHDKGKSIQDLRRRELLEKLLEKLHT[hSer(lactone)]) [Compound 4, X = hSerlac; homoserine lactone peptide]”, the “Total Bone Calcium (% increase over OVX)” value is reported as 55% in the assay with ovariectomized rats (40 ug/kg/day, 5 d of dosing); 79% in the assay with ovariectomized rats (40 ug/kg/day, 10 d of dosing); 79-105% with ovariectomized rats (40 ug/kg/day, 20 d of dosing); 88-114% with ovariectomized rats (setting [3]).

B1: bPTH(1-84): bovine parathyroid hormone, single polypeptide chain of 84 amino acid residues (protein, UniProt P01268 32-115, looked up)
Parathyroid hormone: AVSEIQFMHNLGKHLSSMERVEWLRKKLQDVHNFVALGASIAYRDGSSQRPRKKEDNVLVESHQKSLGEADKADVDVLIKAKPQ
modifications: Parathyroid hormone
notes: bovine parathyroid hormone, single polypeptide chain of 84 amino acid residues
For B1, in assay [1], the “Whole body calcium and ash weight of individual bones” value is on record as “increased”.
